Measurements from US9232792B2, “Method for promoting plant growth” (SUMITOMO CHEMICAL COMPANY, LIMITED, priority 2011, dated 2016).

Each compound was assayed on Tobacco (Nicotiana benthamiana) (assay: Test Example 4: reduction of low-temperature stress in hydroponics of tobacco). Conditions: 10 ppm in medium; 1.5±1.0° C. for 7 days, then 3 days at 22° C.
Assay type: in vivo
Method: Tobacco (Nicotiana benthamiana)
DMSO solutions containing each of the present compounds 1 to 4 at a concentration of 10,000 ppm were prepared. A 1/1,000 volume of each DMSO solution was added to a Murashige-and-Skoog medium (a medium containing 2.3 g of a mixture of salts for Murashige-and-Skoog medium (manufactured by Wako. Pure Chemical Industries, Ltd.), 200 mg of myoinositol (manufactured by Sigma-Aldrich), 2 mg of nicotinic acid (manufactured by Wako Pure Chemical Industries, Ltd.), 2 mg of pyridoxine hydrochloride (manufactured by Wako Pure Chemical Industries, Ltd.), 20 mg of thiamine hydrochloride (manufactured by Wako Pure Chemical Industries, Ltd.), 20 g of sucrose (manufactured by Wako Pure Chemical Industries, Ltd.), 1 g of MES (manufactured by DOJINDO LABORATORIES) in 1 L of water, adjusted to pH 5.8) at ½ concentration to obtain a medium containing the test compound at a concentration of 10 ppm. These media were used in the treated-group.
In a non-treated group, a medium obtained by adding a 1/1,000 volume of DMSO to a Murashige-and-Skoog medium at ½ concentration was used.
The seeds of tobacco (Nicotiana benthamiana) were sown on 5 μL of the medium, and incubated at 22° C. overnight. Thereto was added 45 μL of a medium containing each present compound at a concentration of 10 ppm, and cultivated for 7 days under the conditions of an illuminance of 4,000 lux, a temperature of 22° C. and a day length of 16 hours, thereby treating the seedlings of tobacco (Nicotiana benthamiana) with the test compound.
In the non-treated group, 45 μL of a medium obtained by adding a 1/1,000 volume of DMSO to a Murashige-and-Skoog medium at ½ concentration was added, and treated in the same manner as above.
The seedlings of tobacco (Nicotiana benthamiana) treated with the present compounds were cultivated for 7 days under the conditions of an illuminance of 2,000 lux, a temperature of 1.5±1.0° C., and a day length of 16 hours, thereby subjecting to low-temperature stress treatment.
The plants of tobacco (Nicotiana benthamiana) subjected to low-temperature stress treatment was cultivated for 3 days under the conditions of an illuminance of 4,000 lux, a temperature of 22° C., and a day length of 16 hours, and then the green leaf area of the plants was visually evaluated. Completely dead plant was scored as 0, the plant without low-temperature stress treatment was scored as 5, the green area was rated on a 6-point scale in ⅕ increments, and the score of not less than 1 was regarded as effective in reducing the stress. As a result of visual evaluation, the green leaf area of plants in the treated group, wherein the plants were treated with the present compound 1, 2, 3 or 4 was much larger than that in the non-treated group.
With `O=C(O)c1cc2ccc(C(F)(F)F)cc2s1` [The present compound 2, 6-(trifluoromethyl)benzo[b]thiophene-2-carboxylic acid] the “green leaf area of plants (visual evaluation) vs non-treated group” value (from here on “green leaf area … vs non-treated group”) was “much larger”. `O=C(O)c1cc2c(C(F)(F)F)cccc2s1` [The present compound 3, 4-(trifluoromethyl)benzo[b]thiophene-2-carboxylic acid] was tested, and the “green leaf area … vs non-treated group” value was “much larger”. With `O=C(O)c1cc2cccc(C(F)(F)F)c2s1` [The present compound 4, 7-(trifluoromethyl)benzo[b]thiophene-2-carboxylic acid] the “green leaf area … vs non-treated group” value was “much larger”.

What follows are compounds tested on Rice (cultivar: Nipponbare) (assay: Test Example 3: promotion of root growth in hydroponics of rice). Conditions: 1 ppm in hydroponic solution; 3 days germination + 3 days cultivation.
Assay type: in vivo
Method: (§1) Rice (cultivar: Nipponbare)
(§2) DMSO solutions containing each of the present compounds 4 to 8 at 10,000 ppm were prepared. A 1/10,000 volume of each DMSO solution containing each of the present compounds 4 to 8 at 10,000 ppm was added to a Hoagland solution for hydroponics at ¼ concentration (Hoagland and Arnon, California Agricultural Experiment Station 1950 Circular 347 pp. 34) to obtain a solution for hydroponics containing each of the present compounds 4 to 8 at 1 ppm. These solutions were used in the treated-group.
(§3) In a non-treated group, a solution for hydroponics obtained by adding a Hoagland solution for hydroponics at ¼ concentration to a 1/10,000 volume of DMSO was used.
(§4) The rice seeds were immersed in an aqueous solution of 1% sodium hypochlorite for 10 minutes, followed by 70% ethanol solution to sterilize their surfaces. After that, the seeds were washed with distilled water. The sterilized seeds were immersed in each solution for hydroponics containing the test compound at the given concentration, and incubated at a temperature of 28° C. for 3 days under dark conditions to stimulate the germination of the seeds.
(§5) Then, 30 ml of each solution for hydroponics containing the test compound at the given concentration was dispensed into a plastic tube (20 mm in diameter×113 mm in height) covered with a cardboard on the lateral surface for blocking a light. A float made of a styrene board and a vinyl mesh was placed on the water surface of each solution for hydroponics, and the rice seeds obtained after the stimulation of germination were placed on the float. The seeds were cultivated for 3 days under the conditions of an illuminance of 4,000 lux at the top of the tube, a temperature of 26° C., a humidity of 50%, and a day length of 16 hours.
The root length of the rice seedlings obtained after the cultivation was measured by using WinRHIZO system (manufactured by REGENT INSTRUMENTS). The average value of the root length in the treated group was calculated from the measurement values of 4 or 5 individuals. As a result, the root length in the treated group, wherein the plants were treated with the present compound 4, 5, 6, 7 or 8 (at a concentration of 1 ppm in each case), was much longer than that in the non-treated group.
In the case of `O=C(O)c1cc2cccc(C(F)(F)F)c2s1` [The present compound 4, 7-(trifluoromethyl)benzo[b]thiophene-2-carboxylic acid], the “root length of the rice seedlings vs non-treated group” value (shortened to “root length … vs non-treated group”) is reported as “much longer”. In the case of `O=C([O-])c1cc2cc(C(F)(F)F)ccc2s1.[Na+]` [The present compound 5, sodium 5-(trifluoromethyl)benzo[b]thiophene-2-carboxylate], the “root length … vs non-treated group” value is reported as “much longer”. In the case of `O=C([O-])c1cc2cc(C(F)(F)F)ccc2s1.[K+]` [The present compound 6, potassium 5-(trifluoromethyl)benzo[b]thiophene-2-carboxylate], the “root length … vs non-treated group” value is reported as “much longer”. In the case of `CC(C)N.O=C(O)c1cc2cc(C(F)(F)F)ccc2s1` [The present compound 7, isopropylammonium 5-(trifluoromethyl)benzo[b]thiophene-2-carboxylate], the “root length … vs non-treated group” value is reported as “much longer”. “laurylammonium 5-(trifluoromethyl)benzo[b]thiophene-2-carboxylate [The present compound 8]” was tested, and the “root length … vs non-treated group” value was “much longer”.

What follows are compounds tested on Rice (cultivar: Nipponbare) (assay: Test Example 1: promotion of root growth in hydroponics of rice). Conditions: 1 ppm in hydroponic solution; 3 days germination + 3 days cultivation.
Assay type: in vivo
Method: as §1
as §2, with “compounds 1” for “compounds 4”, “to 3” for “to 8”
as §3, §4, §5
The root length of the rice seedlings obtained after the cultivation was measured by using WinRHIZO system (manufactured by REGENT INSTRUMENTS). The average value of the root length in the treated group was calculated from the measurement values of 4 or 5 individuals. […]
For `O=C(O)c1cc2ccc(C(F)(F)F)cc2s1` [The present compound 2, 6-(trifluoromethyl)benzo[b]thiophene-2-carboxylic acid], the “root length … vs non-treated group” value was “much longer”. For `O=C(O)c1cc2c(C(F)(F)F)cccc2s1` [The present compound 3, 4-(trifluoromethyl)benzo[b]thiophene-2-carboxylic acid], the “root length … vs non-treated group” value was “much longer”.
